The results in this text go back to patent publication US20140094414A1, “COMPOSITION FOR PREVENTING OR TREATING NEURODEGENERATIVE DISEASE INCLUDING BIOACTIVE PEPTIDE AS EFFECTIVE COMPONENT” (PUKYONG NATIONAL UNIVERSITY INDUSTRY-UNIVERSITY CO, priority 2012, published 2014).

No end group written: not given here.

In data set [1] the test system is BV2 cells, murine microglia. The data set can be described thus: Cytotoxicity, MTT assay in BV2 cells. The format is cell-based. Conditions: for cytotoxicity in BV2 cell: 10, 50, 100 μM, 24 and 48 hours. On the procedure: Cytoprotective effect was determined by MTT reduction assay. […] After incubations for 24 hours and 48 hours, the incubated cells were washed with PBS, 100 μl of MTT (0.5 mg/ml final concentration) was added to each wells, and incubation was continued for another 4 hours for a reduction of MTT. […] Relative cell viability was calculated as a percentage compared with the absorbance of the untreated control group.
On the technique in general: Tetrazolium assays rely on reduction of a dye to a coloured formazan, in cell work by metabolically active cells.

Data set [2] relates to PC12 cells co-cultured with BV2 cells. Nature of the data set: Co-culture of Aβ42-activated BV2 cells and PC12 cells, MTT assay. Conditions: 100 μM peptide, 48 hours, 5 uM Aβ42.
Experimental: For the co-culture of microglia and PC12 cells, which has been employed to assess the neurotoxin effect of activated microglia, microglia was first seeded onto cell culture inserts (pore size of 0.2 μm; SPL, Korea). After overnight incubation, microglia were left untreated or exposed 5 uM Aβ42 in the presence or absence of peptides for 24 h. Afterwards, the microglial cells were co-cultured with PC12 cells by transferring the culture inserts containing microglia onto PC12 cell monolayers (see FIG. 15).
In order to confirm cell viability of co-cultured PC12 cell, MTT assay was performed.
Data set [3] relates to NO. The data set can be described thus: NO production, Griess reaction in Aβ42-stimulated BV2 cells. The format is cell-based, murine. The settings on record: stimulation with Aβ42 alone (control), 1 μM 48 h. On the procedure:
NO levels in the cultured BV2 cells' supernatants were measured by the Griess reaction. In brief, BV2 cells were pre incubated overnight in 24-well plates using DMEM without phenol red at a density 2×10^5 cells/ml, followed by the treatment with the HIP-1 peptide of the present invention having various concentrations (10, 50, 100 μM) as a sample for 6 h. After 6 h, the NO production was stimulated by adding Aβ42 (1 μM final concentration) and incubated for further 48 h. Then 50 μl of culture supernatants from each samples was mixed with the same volume of the Griess reagent [1% sulfanilamide/0.1% N-1-naphthyl]-ethylenediamine dihydrochloride/2.5% phosphoric acid] following the incubation for 15 min. Absorbance values were read at 540 nm using ELISA microplate reader (Tecan GmbH, Austria). Blank was not treated, and control was activated BV2 cells by exposing Aβ42 without the HIP-1 peptide of the present invention.
For orientation: The Griess reaction detects nitrite, a stable product of nitric oxide.

Data set [4] deals with nerve cells-differentiated PC12 cells.
Experimental: The present inventors induced a nerve toxin in PC12 cells by differentiating PC12 cells into nerve cells through treating with NGF, and then treating to the differentiated PC12 cells with 20 μM of Aβ42 for 24 hours.
Cytoprotective effect was determined by MTT reduction assay. […] After incubation for 24 hours, 100 μl of MTT (1 mg/ml final concentration) was added to each of wells and incubation was continued for another 4 hours. MTT is used as an indicator of cell viability through its mitochondrial reduction to formazan. Mitochondrial succinate dehydrogenase in live cells converts MTT into visible formazan crystals during incubation. The formazan crystals were then solubilized in DMSO and the absorbance was measured at 540 nm by using enzyme-linked immunosorbent assay (ELISA) microplate reader (Tecan GmbH, Austria). Relative cell viability was calculated compared with the absorbance of the untreated control group.

As to FLHDVQ [HTP-2, FLHDVQ], the “cytotoxicity in BV2 cell” value in data set [1] is given as “did not exhibit cytotoxicity”. The “cell viability of PC12 cells co-cultured with BV2 cells” value in data set [2] is given as 75.19±2.55%.
Turning to GTEDELDK [HTP-1], in data set [1], the “cytotoxicity in BV2 cell” value is reported as “did not exhibit cytotoxicity”. The “cell viability of PC12 cells co-cultured with BV2 cells” value in data set [2] is on record as 82.49±3.05%.
With amyloid-beta 42 [Aβ42], in data set [3], the “production of NO” value was found to be 24.59 ± 2.54 µM. For the same substance, the “toxicity of Aβ42 in BV2 cells” value in data set [1] (Aβ42 0.1, 0.5, 1, 5, 10 μM) was “no toxicities”. For the same substance, in data set [4] (10 μM Aβ42, FIG. 2), the “cell viability of nerve cell-differentiated PC12 cells” value is “greatly decreased”. Moreover, in data set [4] (20 μM Aβ42 for 24 h), the PC12 cell viability result was “reduction”.
